Measurements: US20240269139A1, “COMPOUNDS FOR TARGETED PROTEIN DEGRADATION OF KINASES” (DANA-FARBER CANCER INSTITUTE, INC., priority 2020, published 2024)
Like-named read-outs stand apart in the source and are kept apart here.

Columns and labels:
Assay type in all cases: cell-based
[1] = target: protein kinases (human kinome) (Homo sapiens, UniProt Q16584)
[2] = target: protein kinases (human kinome) (Homo sapiens, UniProt O43683); settings: for logFC: BUB1 (O43683); for logFC BUB1 (O43683): direction down
Sequence of protein kinases (human kinome) (Homo sapiens, UniProt O43683) (O43683 whole entry): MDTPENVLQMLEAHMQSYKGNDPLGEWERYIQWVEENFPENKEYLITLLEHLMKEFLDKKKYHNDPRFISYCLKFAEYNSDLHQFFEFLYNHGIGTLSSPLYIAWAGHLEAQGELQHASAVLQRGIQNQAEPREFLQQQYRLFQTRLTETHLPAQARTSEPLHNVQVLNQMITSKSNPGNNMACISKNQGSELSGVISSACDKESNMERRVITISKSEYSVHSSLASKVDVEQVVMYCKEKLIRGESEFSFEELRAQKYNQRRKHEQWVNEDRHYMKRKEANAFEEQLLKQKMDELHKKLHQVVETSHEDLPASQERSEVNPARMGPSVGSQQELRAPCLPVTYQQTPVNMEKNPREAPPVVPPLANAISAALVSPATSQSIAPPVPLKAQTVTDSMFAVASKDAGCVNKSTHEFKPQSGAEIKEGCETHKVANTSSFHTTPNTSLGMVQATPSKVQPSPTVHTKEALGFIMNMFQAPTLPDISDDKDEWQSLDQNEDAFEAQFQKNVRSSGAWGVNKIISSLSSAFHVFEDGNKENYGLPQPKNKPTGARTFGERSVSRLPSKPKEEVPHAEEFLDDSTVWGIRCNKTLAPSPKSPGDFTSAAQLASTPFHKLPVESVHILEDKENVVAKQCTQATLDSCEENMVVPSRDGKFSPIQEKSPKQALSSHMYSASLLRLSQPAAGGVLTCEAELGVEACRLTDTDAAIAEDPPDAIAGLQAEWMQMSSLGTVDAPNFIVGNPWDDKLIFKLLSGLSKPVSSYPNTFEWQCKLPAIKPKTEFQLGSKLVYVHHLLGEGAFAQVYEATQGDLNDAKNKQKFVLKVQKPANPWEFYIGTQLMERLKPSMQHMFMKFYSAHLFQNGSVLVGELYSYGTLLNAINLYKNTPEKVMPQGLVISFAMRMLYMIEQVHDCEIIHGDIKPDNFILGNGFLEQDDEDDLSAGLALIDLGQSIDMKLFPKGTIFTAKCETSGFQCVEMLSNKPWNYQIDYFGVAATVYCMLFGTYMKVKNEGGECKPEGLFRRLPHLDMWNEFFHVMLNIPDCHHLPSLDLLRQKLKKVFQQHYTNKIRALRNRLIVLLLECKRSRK

[3] = target: T1, protein kinases (human kinome) (Homo sapiens, UniProt Q8TAS1)
T1 sequence (Q8TAS1 1-419): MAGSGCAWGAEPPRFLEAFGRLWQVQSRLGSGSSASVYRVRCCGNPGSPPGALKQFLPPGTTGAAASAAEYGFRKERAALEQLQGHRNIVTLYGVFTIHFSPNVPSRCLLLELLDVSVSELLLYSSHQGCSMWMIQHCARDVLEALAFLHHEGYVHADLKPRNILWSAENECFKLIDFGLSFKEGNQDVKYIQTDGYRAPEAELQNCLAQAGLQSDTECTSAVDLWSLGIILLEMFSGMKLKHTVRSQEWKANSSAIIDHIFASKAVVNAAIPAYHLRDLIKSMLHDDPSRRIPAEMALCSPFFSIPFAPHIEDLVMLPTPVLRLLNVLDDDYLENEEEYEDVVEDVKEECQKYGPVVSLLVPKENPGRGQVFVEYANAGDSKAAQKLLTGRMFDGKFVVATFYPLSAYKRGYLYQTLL

[4] = target: protein kinases (human kinome) (Homo sapiens, UniProt Q14004); settings: for logFC CDK13: Accession Q14004-1
Sequence of protein kinases (human kinome) (Homo sapiens, UniProt Q14004) (Q14004 whole entry): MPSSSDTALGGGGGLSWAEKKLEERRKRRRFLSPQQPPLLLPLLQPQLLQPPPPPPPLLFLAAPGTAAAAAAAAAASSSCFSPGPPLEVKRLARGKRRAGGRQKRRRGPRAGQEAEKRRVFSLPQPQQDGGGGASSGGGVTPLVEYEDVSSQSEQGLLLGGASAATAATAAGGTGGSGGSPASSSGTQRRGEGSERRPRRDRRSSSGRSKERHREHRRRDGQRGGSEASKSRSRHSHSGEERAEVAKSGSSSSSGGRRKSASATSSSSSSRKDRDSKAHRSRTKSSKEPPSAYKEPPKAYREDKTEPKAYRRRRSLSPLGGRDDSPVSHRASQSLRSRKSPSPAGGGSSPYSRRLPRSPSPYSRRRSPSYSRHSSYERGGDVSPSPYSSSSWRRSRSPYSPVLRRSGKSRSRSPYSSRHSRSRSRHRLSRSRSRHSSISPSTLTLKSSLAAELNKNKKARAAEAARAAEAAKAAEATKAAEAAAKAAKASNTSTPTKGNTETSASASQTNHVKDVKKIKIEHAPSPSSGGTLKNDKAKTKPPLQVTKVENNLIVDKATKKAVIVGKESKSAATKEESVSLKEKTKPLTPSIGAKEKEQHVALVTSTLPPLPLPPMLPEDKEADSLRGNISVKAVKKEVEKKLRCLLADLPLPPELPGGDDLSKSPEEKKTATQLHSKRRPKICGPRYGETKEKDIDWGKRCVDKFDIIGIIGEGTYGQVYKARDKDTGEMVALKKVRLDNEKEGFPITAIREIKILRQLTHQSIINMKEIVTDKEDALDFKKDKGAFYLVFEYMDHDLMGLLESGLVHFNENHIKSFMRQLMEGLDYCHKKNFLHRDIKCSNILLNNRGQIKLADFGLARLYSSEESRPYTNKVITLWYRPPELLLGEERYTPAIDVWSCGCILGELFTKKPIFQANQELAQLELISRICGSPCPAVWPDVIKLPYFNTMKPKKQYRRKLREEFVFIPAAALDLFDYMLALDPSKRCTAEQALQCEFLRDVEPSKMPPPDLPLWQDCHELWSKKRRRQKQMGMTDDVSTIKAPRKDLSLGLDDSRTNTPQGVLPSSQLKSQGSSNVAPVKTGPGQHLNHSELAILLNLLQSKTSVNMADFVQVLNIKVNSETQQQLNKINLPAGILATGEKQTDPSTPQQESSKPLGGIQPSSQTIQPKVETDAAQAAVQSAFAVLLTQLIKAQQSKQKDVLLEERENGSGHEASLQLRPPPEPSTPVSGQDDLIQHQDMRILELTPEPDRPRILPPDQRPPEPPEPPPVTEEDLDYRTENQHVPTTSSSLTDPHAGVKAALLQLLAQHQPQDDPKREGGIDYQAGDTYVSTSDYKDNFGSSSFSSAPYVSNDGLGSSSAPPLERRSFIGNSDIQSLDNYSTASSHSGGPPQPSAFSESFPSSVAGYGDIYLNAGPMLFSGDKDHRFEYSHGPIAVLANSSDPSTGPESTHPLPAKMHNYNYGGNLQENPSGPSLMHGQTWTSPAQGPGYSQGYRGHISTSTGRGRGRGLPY

[5] = target: protein kinases (human kinome) (Homo sapiens, UniProt P07947); settings: YES1 (P07947), experiment wp133, 4 hr
Sequence of protein kinases (human kinome) (Homo sapiens, UniProt P07947) (P07947 whole entry): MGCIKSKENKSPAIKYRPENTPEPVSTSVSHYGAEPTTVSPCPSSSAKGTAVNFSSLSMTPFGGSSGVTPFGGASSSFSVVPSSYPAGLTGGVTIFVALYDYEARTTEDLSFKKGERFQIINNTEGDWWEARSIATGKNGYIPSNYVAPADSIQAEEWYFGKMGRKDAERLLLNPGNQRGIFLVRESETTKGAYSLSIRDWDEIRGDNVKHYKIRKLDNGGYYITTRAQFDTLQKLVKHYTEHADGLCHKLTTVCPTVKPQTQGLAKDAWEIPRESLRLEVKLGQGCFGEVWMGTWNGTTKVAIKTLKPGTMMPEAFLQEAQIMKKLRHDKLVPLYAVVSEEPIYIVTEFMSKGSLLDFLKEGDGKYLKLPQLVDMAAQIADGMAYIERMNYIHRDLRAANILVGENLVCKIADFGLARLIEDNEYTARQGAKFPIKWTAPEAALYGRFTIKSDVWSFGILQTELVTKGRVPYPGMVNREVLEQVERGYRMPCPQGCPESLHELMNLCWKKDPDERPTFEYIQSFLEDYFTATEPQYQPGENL

[6] = target: T2, protein kinases (human kinome) (Homo sapiens, UniProt Q9UEE5); settings: STK17A Q9UEE5
T2 sequence (Q9UEE5 1-414): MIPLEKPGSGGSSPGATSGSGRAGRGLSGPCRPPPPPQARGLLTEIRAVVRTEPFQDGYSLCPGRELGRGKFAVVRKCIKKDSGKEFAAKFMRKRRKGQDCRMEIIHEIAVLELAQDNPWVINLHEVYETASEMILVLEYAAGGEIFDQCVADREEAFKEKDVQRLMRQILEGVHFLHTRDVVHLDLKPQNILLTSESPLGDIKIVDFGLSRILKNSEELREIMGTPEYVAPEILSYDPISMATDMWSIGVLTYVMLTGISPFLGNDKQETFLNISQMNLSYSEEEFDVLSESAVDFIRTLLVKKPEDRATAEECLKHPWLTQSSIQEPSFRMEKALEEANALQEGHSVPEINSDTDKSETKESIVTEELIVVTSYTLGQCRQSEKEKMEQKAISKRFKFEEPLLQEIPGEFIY

[7] = target: protein kinases (human kinome) (Homo sapiens, UniProt P53667); settings: LIMK1 (P53667-1)
Sequence of protein kinases (human kinome) (Homo sapiens, UniProt P53667) (P53667 whole entry): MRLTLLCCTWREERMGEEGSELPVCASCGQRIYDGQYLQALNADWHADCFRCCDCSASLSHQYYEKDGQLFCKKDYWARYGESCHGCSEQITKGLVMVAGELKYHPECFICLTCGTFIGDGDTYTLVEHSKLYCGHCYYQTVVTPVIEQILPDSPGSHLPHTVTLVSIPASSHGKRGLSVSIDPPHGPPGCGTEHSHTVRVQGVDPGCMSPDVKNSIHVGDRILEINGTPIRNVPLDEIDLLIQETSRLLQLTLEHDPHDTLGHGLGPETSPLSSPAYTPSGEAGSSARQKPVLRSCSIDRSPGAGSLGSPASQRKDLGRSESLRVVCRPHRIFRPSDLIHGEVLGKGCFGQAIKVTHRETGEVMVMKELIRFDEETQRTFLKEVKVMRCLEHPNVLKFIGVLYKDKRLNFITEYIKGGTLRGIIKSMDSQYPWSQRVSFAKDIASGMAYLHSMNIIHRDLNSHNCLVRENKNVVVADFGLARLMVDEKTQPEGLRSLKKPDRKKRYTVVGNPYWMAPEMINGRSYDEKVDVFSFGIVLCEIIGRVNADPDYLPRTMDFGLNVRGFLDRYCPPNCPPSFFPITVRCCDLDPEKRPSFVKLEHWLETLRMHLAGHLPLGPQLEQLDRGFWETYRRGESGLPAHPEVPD

[8] = target: T3, protein kinases (human kinome) (Homo sapiens, UniProt Q4G0N4); settings: Accession Q4GON4; experiment wp160, 1 hr; direction down
T3 sequence (Q4G0N4 63-442): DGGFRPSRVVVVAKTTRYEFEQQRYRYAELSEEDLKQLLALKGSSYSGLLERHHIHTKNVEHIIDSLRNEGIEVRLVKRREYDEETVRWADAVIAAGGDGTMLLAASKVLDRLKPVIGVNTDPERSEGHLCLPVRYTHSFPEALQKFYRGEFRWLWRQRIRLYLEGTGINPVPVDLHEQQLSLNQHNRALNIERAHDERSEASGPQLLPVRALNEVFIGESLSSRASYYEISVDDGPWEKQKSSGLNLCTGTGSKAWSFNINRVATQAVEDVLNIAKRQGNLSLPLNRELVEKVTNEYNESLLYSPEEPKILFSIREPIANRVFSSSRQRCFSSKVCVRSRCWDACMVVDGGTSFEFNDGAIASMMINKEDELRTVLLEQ

[9] = target: protein kinases (human kinome) (Homo sapiens, UniProt Q13233); settings: experiment wp105

Sequence of protein kinases (human kinome) (Homo sapiens, UniProt Q16584) (Q16584 whole entry): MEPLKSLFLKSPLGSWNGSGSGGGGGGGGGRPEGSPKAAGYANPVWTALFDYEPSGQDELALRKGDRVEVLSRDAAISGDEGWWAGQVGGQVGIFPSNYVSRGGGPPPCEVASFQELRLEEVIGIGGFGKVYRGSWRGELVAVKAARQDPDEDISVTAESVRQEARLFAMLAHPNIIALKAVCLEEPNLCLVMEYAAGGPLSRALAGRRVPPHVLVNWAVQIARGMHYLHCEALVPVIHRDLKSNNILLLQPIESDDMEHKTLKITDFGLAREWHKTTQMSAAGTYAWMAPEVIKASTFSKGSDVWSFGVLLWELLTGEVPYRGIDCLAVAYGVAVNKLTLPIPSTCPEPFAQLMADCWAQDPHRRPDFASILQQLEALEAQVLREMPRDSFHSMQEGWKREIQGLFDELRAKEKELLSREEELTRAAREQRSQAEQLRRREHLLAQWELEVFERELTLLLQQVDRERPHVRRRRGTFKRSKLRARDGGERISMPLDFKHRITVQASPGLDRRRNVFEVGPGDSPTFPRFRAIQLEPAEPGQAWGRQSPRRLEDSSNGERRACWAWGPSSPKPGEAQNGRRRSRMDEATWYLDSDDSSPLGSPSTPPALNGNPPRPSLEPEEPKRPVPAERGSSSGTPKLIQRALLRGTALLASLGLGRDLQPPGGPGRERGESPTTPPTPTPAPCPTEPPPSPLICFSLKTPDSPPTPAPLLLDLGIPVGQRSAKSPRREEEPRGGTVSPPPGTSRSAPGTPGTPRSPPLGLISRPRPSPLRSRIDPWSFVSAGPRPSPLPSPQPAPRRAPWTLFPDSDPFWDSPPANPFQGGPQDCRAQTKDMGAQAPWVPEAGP

CC(C)S(=O)(=O)c1ccccc1Nc1nc(Nc2ccc(N3CCN(CCOCCNC(=O)CNc4cccc5c4C(=O)N(C4CCC(=O)NC4=O)C5=O)CC3)cc2)ncc1Cl (stereo not shown) [SK.3.91]
logFC MAP3K11 (Q16584) ([1]; experiment wp103): −0.7838 | logFC MAP3K11 (Q16584) ([1]; experiment wp107): −2.182 | logFC MAP3K11 (Q16584) ([1]; experiment wp114): −0.4774 | logFC MAP3K11 (Q16584) ([1]; experiment wp133, 1 hr): −0.3986 | logFC MAP3K11 (Q16584) ([1]; experiment wp133, 2 hr): −0.8441 | logFC MAP3K11 (Q16584) ([1]; experiment wp133, 4 hr): −1.487 | logFC ([2]; experiment wp133, 1 hr): −0.4907 | logFC ([2]; experiment wp133, 2 hr): −0.4456 | logFC ([2]; experiment wp133, 4 hr): −0.5963 | logFC BUB1 (O43683) ([2]; Experiment wp133, 1 hr): −0.4907 | logFC BUB1 (O43683) ([2]; Experiment wp133, 2 hr): −0.4456 | logFC BUB1 (O43683) ([2]; Experiment wp133, 4 hr): −0.5963 | logFC UHMK1 ([3]; Accession Q8TAS1, experiment wp160, 2 hr, direction down): −0.4144 | logFC UHMK1 ([3]; Accession Q8TAS1, experiment wp160, 4 hr, direction down): −0.3959 | logFC UHMK1 ([3]; UHMK1 (Q8TAS1), experiment wp160, 2 hr): −0.4144 | logFC UHMK1 ([3]; UHMK1 (Q8TAS1), experiment wp160, 4 hr): −0.3959 | logFC CDK13 ([4]; experiment wp016): −0.6046 | logFC CDK13 ([4]; experiment wp016, 1 uM): −0.5749 | logFC CDK13 ([4]; experiment wp103): −0.4833 | logFC CDK13 ([4]; experiment wp105): −0.4649 | logFC CDK13 ([4]; experiment wp107): −0.7112 | logFC CDK13 ([4]; experiment wp133, 4 hr): −0.5562 | logFC CDK13 ([4]; experiment wp160, 4 hr): −0.4805 | logFC CDK13 ([4]; experiment wp172): −0.859 | logFC ([4]; CDK13 (Q14004-1), experiment wp016, 1 uM): −0.5749 | logFC CDK13 (Q14004-1) ([4]; Experiment wp172): −0.859 | logFC CDK13 (Q14004-1) ([4]; experiment wp016): −0.6046 | logFC CDK13 (Q14004-1) ([4]; experiment wp103): −0.4833 | logFC CDK13 (Q14004-1) ([4]; experiment wp105): −0.4649 | logFC CDK13 (Q14004-1) ([4]; experiment wp107): −0.7112 | logFC CDK13 (Q14004-1) ([4]; experiment wp133, 4 hr): −0.5562 | logFC CDK13 (Q14004-1) ([4]; experiment wp160, 4 hr): −0.4805 | logFC [5]: −0.5025 | logFC ([5]; direction down): −0.5025 | logFC ([6]; experiment wp016, 1 uM): −0.7032 | logFC STK17A ([6]; experiment wp016, 1 uM): −0.7032 | logFC ([6]; experiment wp103): −0.6201 | logFC STK17A ([6]; experiment wp103): −0.6201 | logFC ([6]; experiment wp107): −0.6984 | logFC STK17A ([6]; experiment wp107): −0.6984 | logFC ([6]; experiment wp133, 4 hr): −0.5458 | logFC STK17A ([6]; experiment wp133, 4 hr): −0.5458 | logFC ([6]; experiment wp172): −0.3963 | logFC STK17A ([6]; experiment wp172): −0.3963 | logFC LIMK1 ([7]; direction down, experiment wp103): −1.238 | logFC LIMK1 ([7]; direction down, experiment wp105): −1.464 | logFC LIMK1 ([7]; direction down, experiment wp107): −0.8704 | logFC LIMK1 ([7]; direction down, experiment wp114): −0.546 | logFC LIMK1 ([7]; direction down, experiment wp133, 1 hr): −0.4117 | logFC LIMK1 ([7]; direction down, experiment wp133, 2 hr): −0.8026 | logFC LIMK1 ([7]; direction down, experiment wp133, 4 hr): −1.371 | logFC LIMK1 ([7]; direction down, experiment wp160, 2 hr): −0.8634 | logFC LIMK1 ([7]; direction down, experiment wp160, 4 hr): −1.366 | logFC LIMK1 ([7]; direction down, experiment wp172): −1.869 | logFC LIMK1 ([7]; experiment wp103, down): −1.238 | logFC LIMK1 ([7]; experiment wp105, down): −1.464 | logFC LIMK1 ([7]; experiment wp107, down): −0.8704 | logFC LIMK1 ([7]; experiment wp114, down): −0.546 | logFC LIMK1 ([7]; experiment wp133, 1 hr, down): −0.4117 | logFC LIMK1 ([7]; experiment wp133, 2 hr, down): −0.8026 | logFC LIMK1 ([7]; experiment wp133, 4 hr, down): −1.371 | logFC LIMK1 ([7]; experiment wp160, 2 hr, down): −0.8634 | logFC LIMK1 ([7]; experiment wp160, 4 hr, down): −1.366 | logFC LIMK1 ([7]; experiment wp172, down): −1.869 | logFC NADK2 [8]: −0.698 | logFC MAP3K1 ([9]; Accession Q13233, direction down): −0.3258 | logFC MAP3K1 ([9]; MAP3K1 (Q13233)): −0.3258
